Data taken from ChEMBL document CHEMBL1201862, “PubChem BioAssay data set” (2004).
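Briefly, cells in 96-well plates were exposed to five compound concentrations for 48 h, and endpoints were estimated by linear interpolation. The concentration for 50% growth inhibition is given as GI50.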 Active and inactive are the calls of the source. No stated cut-off is given here; in the data, active = GI50 up to about 1.1 µM and inactive = higher.

How the values were obtained:
Assay in all cases: NCI tumour cell line growth inhibition, 48 h
[1] = tested on: NCI-H226
[2] = tested on: HL-60
[3] = tested on: HCC 2998
[4] = tested on: DU-145
[5] = tested on: SF-539
[6] = tested on: T47D
[7] = tested on: NCI-H460
[8] = tested on: Hs-578T
[9] = tested on: K562
[10] = tested on: HT-29
[11] = tested on: OVCAR-5
[12] = tested on: SNB-75
[13] = tested on: HOP-92
[14] = tested on: HCT-15
[15] = tested on: MOLT-4
[16] = tested on: A549
[17] = tested on: SF-268
[18] = tested on: UACC-257
[19] = tested on: SNB-19
[20] = tested on: MDA-N
[21] = tested on: SW-620
[22] = tested on: CAKI-1
[23] = tested on: OVCAR-3
[24] = tested on: MDA-MB-231
[25] = tested on: NCI-H522
[26] = tested on: SK-MEL-28
[27] = tested on: PC-3
[28] = tested on: COLO 205
[29] = tested on: SK-OV-3
[30] = tested on: 786-0
[31] = tested on: TK-10
[32] = tested on: A498
[33] = tested on: MCF7
[34] = tested on: RXF 393
[35] = tested on: LOX IMVI
[36] = tested on: U-251
[37] = tested on: OVCAR-8
[38] = tested on: IGROV-1
[39] = tested on: NCI-H23
[40] = tested on: M14
[41] = tested on: SN12C
[42] = tested on: Malme-3M
[43] = tested on: EKVX
[44] = tested on: UACC-62
[45] = tested on: OVCAR-4
[46] = tested on: CCRF-CEM
[47] = tested on: HOP-62
[48] = tested on: MDA-MB-435
[49] = tested on: SK-MEL-2
[50] = tested on: SK-MEL-5
[51] = tested on: KM12
[52] = tested on: SF-295
[53] = tested on: NCI/ADR-RES
[54] = tested on: SR
[55] = tested on: ACHN
[56] = tested on: RPMI-8226
[57] = tested on: UO-31
[58] = tested on: HCT-116

## O=C1C(Cl)=C(N2CCN(CCOCCO)CC2)C(=O)c2c(O)ccc(O)c21
[1]
  GI50: 1.75 µM (inactive)
[2]
  GI50: 0.0272 µM (active)
[3]
  GI50: 3.28 µM (inactive)
[4]
  GI50: 2.65 µM (inactive)
[5]
  GI50: 1.66 µM (inactive)
[6]
  GI50: 0.458 µM (active)
[7]
  GI50: 3.08 µM (inactive)
[8]
  GI50: 2.1 µM (inactive)
[9]
  GI50: 0.104 µM (active)
[10]
  GI50: 0.64 µM (active)
[11]
  GI50: 2.38 µM (inactive)
[12]
  GI50: 1.77 µM (inactive)
[13]
  GI50: 0.422 µM (active)
[14]
  GI50: 0.453 µM
[15]
  GI50: 0.0869 µM (active)
[16]
  GI50: 2.77 µM (inactive)

## c1ccc(C2=NCCc3cc4c(cc32)OCO4)cc1
[17]
  GI50: > 100 µM (inactive)
[18]
  GI50: > 100 µM (inactive)
[19]
  GI50: > 100 µM (inactive)
[20]
  GI50: > 100 µM (inactive)
[21]
  GI50: > 100 µM (inactive)
[22]
  GI50: > 100 µM (inactive)
[23]
  GI50: > 100 µM (inactive)
[24]
  GI50: > 100 µM (inactive)
[25]
  GI50: > 100 µM (inactive)
[26]
  GI50: > 100 µM (inactive)
[27]
  GI50: > 100 µM (inactive)
[28]
  GI50: > 100 µM (inactive)
[3]
  GI50: > 100 µM (inactive)
[4]
  GI50: > 100 µM (inactive)
[5]
  GI50: > 100 µM (inactive)
[29]
  GI50: > 100 µM (inactive)
[30]
  GI50: > 100 µM (inactive)
[31]
  GI50: > 100 µM (inactive)
[32]
  GI50: > 100 µM (inactive)
[33]
  GI50: > 100 µM (inactive)
[6]
  GI50: > 100 µM (inactive)
[34]
  GI50: > 100 µM (inactive)
[8]
  GI50: > 100 µM (inactive)
[35]
  GI50: > 100 µM (inactive)
[36]
  GI50: > 100 µM (inactive)
[11]
  GI50: > 100 µM (inactive)
[37]
  GI50: > 100 µM (inactive)
[38]
  GI50: > 100 µM (inactive)
[39]
  GI50: > 100 µM (inactive)
[40]
  GI50: > 100 µM (inactive)
[41]
  GI50: > 100 µM (inactive)
[42]
  GI50: > 100 µM (inactive)
[43]
  GI50: > 100 µM (inactive)
[44]
  GI50: > 100 µM (inactive)
[45]
  GI50: > 100 µM (inactive)
[46]
  GI50: > 10 µM (inactive)
[47]
  GI50: > 100 µM (inactive)
[48]
  GI50: > 100 µM (inactive)
[49]
  GI50: > 100 µM (inactive)
[50]
  GI50: > 100 µM (inactive)
[16]
  GI50: > 100 µM (inactive)
[51]
  GI50: > 100 µM (inactive)
[52]
  GI50: > 100 µM (inactive)
[53]
  GI50: > 100 µM (inactive)
[54]
  GI50: > 100 µM (inactive)

## COc1ccc(C(=CCC(C)C2CCC3[C@@H]4C(OC(C)=O)CC5CC(OC(C)=O)CC[C@]5(C)C4CC(OC(C)=O)[C@]23C)c2ccc(OC)cc2)cc1 (stereo partly specified)
[17]
  GI50: > 100 µM (inactive)
[18]
  GI50: 99.5 µM (inactive)
[19]
  GI50: > 100 µM (inactive)
[55]
  GI50: 37.3 µM (inactive)
[21]
  GI50: 91.4 µM (inactive)
[24]
  GI50: > 100 µM (inactive)
[25]
  GI50: 23.8 µM (inactive)
[26]
  GI50: 83.8 µM (inactive)
[27]
  GI50: 19.5 µM (inactive)
[28]
  GI50: > 100 µM (inactive)
[2]
  GI50: 8.02 µM (inactive)
[3]
  GI50: > 100 µM (inactive)
[5]
  GI50: 97.7 µM (inactive)
[29]
  GI50: > 100 µM (inactive)
[30]
  GI50: > 100 µM (inactive)
[31]
  GI50: > 100 µM (inactive)
[33]
  GI50: 20.3 µM (inactive)
[6]
  GI50: 41 µM (inactive)
[7]
  GI50: 55.2 µM (inactive)
[8]
  GI50: > 100 µM (inactive)
[56]
  GI50: 29.2 µM (inactive)
[9]
  GI50: 67.8 µM (inactive)
[57]
  GI50: 47.4 µM (inactive)
[10]
  GI50: > 100 µM (inactive)
[36]
  GI50: > 100 µM (inactive)
[11]
  GI50: 72.8 µM (inactive)
[12]
  GI50: 34.8 µM (inactive)
[37]
  GI50: > 100 µM (inactive)
[38]
  GI50: > 100 µM (inactive)
[14]
  GI50: 86.5 µM
[40]
  GI50: 19.1 µM (inactive)
[41]
  GI50: > 100 µM (inactive)
[43]
  GI50: > 100 µM (inactive)
[15]
  GI50: 17.1 µM (inactive)
[45]
  GI50: 19.1 µM (inactive)
[46]
  GI50: 27.1 µM (inactive)
[47]
  GI50: > 100 µM (inactive)
[48]
  GI50: 77.1 µM (inactive)
[50]
  GI50: > 100 µM (inactive)
[16]
  GI50: > 100 µM (inactive)
[51]
  GI50: 76.6 µM (inactive)
[52]
  GI50: > 100 µM (inactive)
[58]
  GI50: 66.1 µM (inactive)
[53]
  GI50: 80.7 µM (inactive)
[54]
  GI50: 19.5 µM (inactive)
